# Assays:
# Type in all cases: cell-based, human
# [1] = test system: melanoma LOX IMVI cell line; assay: Annexin V-FITC/PI apoptosis and necrosis assay; details: LOX IMVI treated with IC50 concentration
# Protocol: Following the manufacturer’s instructions, the Annexin V-FITC Apoptosis Detection Kit (Bio Vision Research Products, USA) was used to analyze cell apoptosis. Briefly, 500 µL of 1X Binding buffer was used to resuspend 1-5 × 10^5 cells that had been harvested by centrifugation. Propidium iodide (PI, 50 mg/ml) and Annexin V-FITC, each administered in 5 µL, were also added. The cells were first incubated for 5 minutes at room temperature in the dark before being analyzed using the Annexin V-FITC binding flow cytometric technique (Ex = 488 nm; Em = 530 nm) with a FITC signal detector (typically FL1) and PI staining with a phycoerythrin emission signal detector (typically FL2). Before exposing adherent cells to Annexin V-FITC, we gently trypsinized and gave them a single wash in serum-containing medium (A.3–5). Cell synchronisation is done using Double-thymidine synchronization method and the used Media is double modifed eagle media (DMEM).
# Cell cycle analysis and detection of apoptosis
# Annexin V-FITC apoptosis assay
# Cell apoptosis were analyzed by the Annexin V-FITC Apoptosis Detection Kit (Bio Vision Research Products, USA). Thereafter, 1-5 x 10^5 cells were collected by centrifugation and resuspend in 500 μl of 1X Binding Buffer. Added 5 μl of Annexin V-FITC and 5 μl of propidium iodide (PI 50mg/ml, optional.). The cells incubated at room temperature for 5 min in the dark; Analyzed by Annexin V-FITC binding flow cytometric method (Ex = 488 nm; Em = 530 nm) using FITC signal detector (usually FL1) and PI staining by the phycoerythrin emission signal detector (usually FL2). For adherent cells, we gently trypsinized and washed cells once with serum-containing media before incubation with Annexin V-FITC (A.3-5). […]
# Bax = assay: Western blot of protein expression in LOX IMVI cells; details: control = 1
# Protocol: (§1) To evaluate the expression level of the apoptosis modulatory markers Bax, caspase 3 and PARP-1, western blot was performed as formerly described. Three different groups of LOX IMVI cells were permitted to grow to reach 70–80% confluence in […] flasks. The first group of LOX IMVI cells was treated with compound 3i. […] The media was taken out after 48 h, and cells underwent three rounds of ice-cold PBS washing. RIPA lysis buffer [consisting of Tris-HCl pH 7.6 (25 mM), NaCl (150 mM), EDTA (5 mM), NP-40 or Triton X-100 (1%), sodium deoxycholate (1%), SDS1 (1%)] with the proper phosphatase and a protease inhibitor was used to create the whole-cell lysate for 30 min. After centrifuging the mixture at 12,000 rpm for 20 min and sonicating it for five minutes, the supernatant was collected, split into aliquots, and kept at -80 °C. The Biuret method was used to determine protein content[27],[28]. Proteins in each matched cell lysate were denatured in 2 Laemmli buffer containing 5% β--mercaptoethanol at 95 °C for 5 min. For SDS-PAGE electrophoresis, 20 µg of protein per lane were loaded at 100 volts through a 6% stacking gel, then at 125 volts through a 10% resolving gel for around 2 h, and then transferred to a PVDF membrane using a semidry transfer apparatus (made by Cleaver Scientific) for 25 min. The PVDF membrane was first incubated for one hour at 4 °C in TBS buffer containing 0.1% Tween (TBST) and 5% fat-free milk, then overnight at 4 °C with monoclonal anti-Bax, anti-PARP-1, and anti-caspase-3 as primary antibodies (Cell Signalling Technology) at a dilution of 1:500. Membranes were first treated overnight, then three times washed in TBST buffer, then incubated at room temperature for 60 min with the corresponding HRP (horse radish peroxidase)-linked secondary antibodies (Dako). Then the substrate for the chemiluminescent Western ECL (Perkin Elmer, Waltham, MA) was added to the blot as described by the manufacturer by incubating the membranes with equal volumes of ECL solution A and ECL solution B for 1 min.
# PARP-1 = assay: as above; details: control = 1
# Protocol: as §1
# active caspase-3 = assay: as above; details: control = 1
# Protocol: as §1
smiles,measurement,setting,value
O=C(O)c1cn(C2CC2)c2cc(N3CCN(C(=O)CCCN4C(=O)S/C(=C\c5ccc(F)cc5)C4=O)CC3)c(F)cc2c1=O [3i],Apoptosis Early,[1],3.03%
same,Apoptosis Late,[1],24.17%
same,Apoptosis Total,[1],38.51%
same,Necrosis,[1],11.31%
same,Bax OD,Bax,4.13
same,PARP-1 OD,PARP-1,0.87
same,Caspace-3 Optical density (OD),active caspase-3,3.14
